Data reported in patent publication US8217042B2, “Pyridopyrazines and their use as modulators of kinases” (Zentaris GmbH, priority 2005, dated 2012).

Columns and labels:
Jnk1 + Jnk2 = assay: Cell-free kinase assay (ALPHA technology), Jnk1 + Jnk2; format: biochemical; settings: at 10 μM or 100 μM* ATP, recombinant human kinases
Description: The inhibitory effect of the inventive compounds was tested on various human serine/threonine kinases, tyrosine kinases and lipid kinases in enzymatic assays. Recombinant human kinases, for example Erk2, PI3Kalpha, -beta, -gamma, -delta, p38alpha, p38gamma, Jnk1, Jnk2 and others were used, in some cases as full-length kinases, in some cases as truncated fragments—but at least consisting of the functional kinase domains. The commercial kinase proteins (Proqinase, Upstate) were used as recombinant fusion proteins with GST (glutathione S-transferase) tag or His tag. Depending on the substrate type, the different kinase reactions were quantified by means of suitable ALPHA™ beads (PerkinElmer). […]
The fluorescence was detected the next morning in a Fusion™ alpha instrument (Perkin Elmer).
The calculation of % inhibition values per substance concentration was done by means of the following formula from the raw data determined in the Fusion™ alpha:
The controls were each determined 8 times, the substance samples each twice. 0% control contained neither any ATP nor any substrate; the 100% control contained no test substance. The IC50 values were determined with GraphPadPrism.

MDA-MB468 = assay: XTT assay, anti-proliferative action, MDA-MB468; format: cell-based; settings: Homo sapiens, MDA-MB-468, 45 h, MDA-MB468 cells, 45 h incubation
Description: The principle of this test is based on the intracellular reduction of the tetrazolium dye XTT (sodium 3′-[1-(phenylaminocarbonyl)-3,4-tetrazolium]bis(4-methoxy-6-nitro)benzenenesulphonic acid, Sigma) to a formazan dye by mitochondrial dehydrogenases.
The dye is formed only by metabolically active cells; its photometrically measurable intensity is a quantitative indicator for the presence of living cells. The reduction in the dye formation as a result of incubation of the cells with substances serves as a parameter for the anti-proliferative action.
The tumour cell lines (ATCC) were seeded in 96-well microtitre plates in a defined cell count (5000 cells/well for BxPC3 and Hct116; 10 000 cells/well for MDA MB468), and then incubated overnight in an incubator at 37° C., 5% CO2 and 95% air humidity. The test substances were made up as stock solutions (10 mM) in DMSO. […] The cell plates were then incubated for 45 h in an incubator at 37° C., 5% CO2 and 95% air humidity.
For the detection reaction, the XTT substrate was admixed with PMS (N-methyldibenzopyrazine methylsulphate, Sigma) and added to the cells, so as to result in a final concentration of 325 μg of XTT/ml and 2.5 μg PMS/ml. The mixture was then incubated for 3 h at 37° C., 95% air humidity. Subsequently the formazan salt formed by cellular dehydrogenases was quantified at an absorption of 490 nm.
The evaluation of the % inhibition values was done by means of the following formula from the values for the optical densities measured in each case at 490 nm:
The controls were determined 8 times each, the substance samples twice each. 0% control contained no cells; the 100% control contained no test substance. The EC50 values were determined with GraphPadPrism.

PI3K →pAkt = assay: Cellular substrate phosphorylation (Western blotting), PI3K substrate Akt; format: cell-based; settings: 5 h, tumour cell line
Description: This method enables a statement of whether the kinase modulator investigated achieves the desired effect in a cellular context too, i.e., in this case, a substrate protein downstream of the target kinase is examined for its phosphorylation status. To this end, the cells incubated with substance are lysed and the overall protein is separated on a reducing polyacrylamide gel. Subsequently, the proteins are transferred by means of Western blotting to a PVDF membrane and the substrate bands sought are made visible with specific antibodies and a suitable detection method. The substrate proteins downstream of the target kinases are detected simultaneously with an anti-phospho antibody which is specific in each case and simultaneously a total antibody which recognizes the substrate total protein. The duplex technology of the ODYSSEY imager (LiCOR) enables this simultaneous measurement. The intensity of the total substrate bands is employed to normalize and quantify the phosphorylation inhibition or activation.
Suitable tumour cell lines (e.g. BxPC3, Hct116 or MDA MB468) were seeded into 6-well microtitre plates in a defined cell count (e.g. 350 000 cells/well for BxPC3 and Hct116) in the particular standard complete media and then incubated overnight in an incubator at 37° C., 5% CO2 and 95% air humidity. The cells were then incubated further for a further 24 h under reduced-serum conditions, i.e. in the particular medium except at only 0.25% serum. The test substances were made up as stock solutions (10 mM) in DMSO and incubated with the cells at final concentrations of 5, 15.8 and 50 μM for 5 h. This was followed by cell lysis in 25 mM Tris, 150 mM NaCl, 10 mM sodium pyrophosphate, 2 mM EGTA, 25 mM beta-glycerophosphate, 25 mM NaF, 10% glycerol, 0.75% NP-40, 100 μM NaVO4 buffer. After protein quantification by means of BCA (bicinchonic acid protein assay kit, Sigma) assay, amounts of protein of about 20 μg per track were separated on a Lammli polyacrylamide gel and then transferred onto a PVDF membrane (Millipore) by means of semi-dry Western blotting at 0.8 mA/cm^2 for 1 h. This was followed by prehybridization of the membrane for 1 hour in I-block reagent (Applied Biosystems) and overnight incubation with the specific antibodies. To determine the Erk and PI3K inhibition, the next substrates Rsk1 downstream were detected with the total antibody (Rsk #sc-231g C-21, Santa Cruz) and the phospho antibody (Phospho-p90RSK (S380) #9341, NEB Cell Signalling) and Akt with the total antibody (Akt1 #sc-20, Santa Cruz) and the phospho antibody (Phospho-Akt (Ser 473) #9271, NEB Cell Signaling). After the membrane had been washed, the secondary antibodies were incubated with anti-rabbit IR Dye 800 (#611-732-127, Rockland) for the phospho antibody and anti-goat Alexa Fluor 680 (#A-21081, […]) for the total protein antibody. After incubation for 30 min at room temperature in the dark, the hybridization of the detection antibody was detected on the membrane by scanning in an ODYSSEY imager (LiCOR).

`CCNC(=O)Nc1ccc2ncc(Nc3ccc(C)c(NS(C)(=O)=O)c3)nc2n1` [Compound 49, N-{5-[6-(3-Ethylurea)pyrido[2,3-b]pyrazin-3-ylamino]-2-methylphenyl}methanesulphonamide] gave an IC50 (Jnk1 + Jnk2) of over 31.6 µM, an EC50 (MDA-MB468) of 16 µM and an inhibition at 50 µM (PI3K →pAkt) of 90%.
